The kinase profiling compilation of Christmann-Franck et al. (2016)
“And” between values parts separate entries of the source, which are not always exact repeats. Equal values may be shown once.

Assays:
Experiment in all cases: KINOMEscan competition binding
Settings in all cases: compound 10.0 µM
MAP4K3 (human) = MAP4K3 (human) (UniProt Q8IVH8)
FGFR4 (human) = FGFR4 (human) (UniProt P22455)
CDK11B (human) = CDK11B (human) (UniProt P21127)
EGFR (human) = EGFR (human) (UniProt P00533)
CAMK2D (human) = CAMK2D (human) (UniProt Q13557)
MARK2 (human) = MARK2 (human) (UniProt Q7KZI7)
Chain of MARK2 (human) (Q7KZI7 whole entry, looked up): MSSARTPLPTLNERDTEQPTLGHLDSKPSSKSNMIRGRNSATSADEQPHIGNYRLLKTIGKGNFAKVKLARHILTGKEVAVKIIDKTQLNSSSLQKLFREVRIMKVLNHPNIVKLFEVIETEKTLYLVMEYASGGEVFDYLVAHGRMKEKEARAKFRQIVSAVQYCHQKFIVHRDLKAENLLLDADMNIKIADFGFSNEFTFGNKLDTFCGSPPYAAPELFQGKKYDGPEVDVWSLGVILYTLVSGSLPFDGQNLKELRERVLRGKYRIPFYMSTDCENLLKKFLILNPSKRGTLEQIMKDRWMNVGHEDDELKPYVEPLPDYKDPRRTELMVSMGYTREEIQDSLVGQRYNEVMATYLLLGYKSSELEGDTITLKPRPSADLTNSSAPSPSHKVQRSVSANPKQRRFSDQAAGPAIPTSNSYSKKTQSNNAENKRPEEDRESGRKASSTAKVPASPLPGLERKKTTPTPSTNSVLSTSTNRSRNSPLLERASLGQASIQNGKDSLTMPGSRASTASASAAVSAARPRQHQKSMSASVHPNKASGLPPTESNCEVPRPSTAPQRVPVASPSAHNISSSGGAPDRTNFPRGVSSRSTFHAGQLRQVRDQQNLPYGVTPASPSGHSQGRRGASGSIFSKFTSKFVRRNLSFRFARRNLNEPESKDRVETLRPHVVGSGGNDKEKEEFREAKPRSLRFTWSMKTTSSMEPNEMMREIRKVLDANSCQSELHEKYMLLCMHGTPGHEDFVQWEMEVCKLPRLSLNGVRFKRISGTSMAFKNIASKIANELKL

INSR (human) = INSR (human) (UniProt P06213)
[1] = test system: ABL1 (human), P00519 [Y253F]
PDGFRA (human) = PDGFRA (human) (UniProt P16234)
PKN1 (human) = PKN1 (human) (UniProt Q16512)
ITK (human) = ITK (human) (UniProt Q08881)
LIMK1 (human) = LIMK1 (human) (UniProt P53667)
Chain of LIMK1 (human) (P53667 whole entry, looked up): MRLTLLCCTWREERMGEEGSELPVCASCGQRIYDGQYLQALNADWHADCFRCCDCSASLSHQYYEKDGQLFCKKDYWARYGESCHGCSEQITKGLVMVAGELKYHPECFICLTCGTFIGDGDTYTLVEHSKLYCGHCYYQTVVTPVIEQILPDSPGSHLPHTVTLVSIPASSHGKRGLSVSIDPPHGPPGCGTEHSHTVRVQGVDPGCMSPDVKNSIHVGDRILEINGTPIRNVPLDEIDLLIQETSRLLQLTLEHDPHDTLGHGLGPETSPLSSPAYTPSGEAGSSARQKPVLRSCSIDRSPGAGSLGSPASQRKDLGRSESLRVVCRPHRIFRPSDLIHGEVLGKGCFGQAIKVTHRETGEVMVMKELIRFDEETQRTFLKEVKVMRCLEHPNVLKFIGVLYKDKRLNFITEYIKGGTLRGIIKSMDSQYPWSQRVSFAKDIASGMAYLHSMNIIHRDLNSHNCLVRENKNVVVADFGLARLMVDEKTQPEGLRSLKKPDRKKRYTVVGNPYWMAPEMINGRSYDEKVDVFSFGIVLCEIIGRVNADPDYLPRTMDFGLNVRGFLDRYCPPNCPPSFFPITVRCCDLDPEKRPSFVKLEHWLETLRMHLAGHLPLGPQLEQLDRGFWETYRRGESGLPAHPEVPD

LCK (human) = LCK (human) (UniProt P06239)
EIF2AK2 (human) = EIF2AK2 (human) (UniProt P19525)
TXK (human) = TXK (human) (UniProt P42681)
PKMYT1 (human) = PKMYT1 (human) (UniProt Q99640)
MST4 (human) = MST4 (human) (UniProt Q9P289)
CDK3 (human) = CDK3 (human) (UniProt Q00526)
PHKG1 (human) = PHKG1 (human) (UniProt Q16816)
STK10 (human) = STK10 (human) (UniProt O94804)
PRKX (human) = PRKX (human) (UniProt P51817)
MAP2K1 (human) = MAP2K1 (human) (UniProt Q02750)
Chain of MAP2K1 (human) (Q02750 whole entry, looked up): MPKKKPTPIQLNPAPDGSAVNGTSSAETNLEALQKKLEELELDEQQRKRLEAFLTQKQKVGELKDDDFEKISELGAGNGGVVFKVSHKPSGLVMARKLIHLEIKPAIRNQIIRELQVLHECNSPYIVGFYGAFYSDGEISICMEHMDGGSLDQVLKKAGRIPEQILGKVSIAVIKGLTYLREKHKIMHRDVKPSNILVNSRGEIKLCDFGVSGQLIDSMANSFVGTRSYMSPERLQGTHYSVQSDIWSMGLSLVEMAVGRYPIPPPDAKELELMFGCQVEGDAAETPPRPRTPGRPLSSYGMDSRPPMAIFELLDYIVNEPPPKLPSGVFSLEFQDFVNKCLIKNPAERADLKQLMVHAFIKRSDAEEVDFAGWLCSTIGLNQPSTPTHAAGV

MAPKAPK5 (human) = MAPKAPK5 (human) (UniProt Q8IW41)
Chain of MAPKAPK5 (human) (Q8IW41 whole entry, looked up): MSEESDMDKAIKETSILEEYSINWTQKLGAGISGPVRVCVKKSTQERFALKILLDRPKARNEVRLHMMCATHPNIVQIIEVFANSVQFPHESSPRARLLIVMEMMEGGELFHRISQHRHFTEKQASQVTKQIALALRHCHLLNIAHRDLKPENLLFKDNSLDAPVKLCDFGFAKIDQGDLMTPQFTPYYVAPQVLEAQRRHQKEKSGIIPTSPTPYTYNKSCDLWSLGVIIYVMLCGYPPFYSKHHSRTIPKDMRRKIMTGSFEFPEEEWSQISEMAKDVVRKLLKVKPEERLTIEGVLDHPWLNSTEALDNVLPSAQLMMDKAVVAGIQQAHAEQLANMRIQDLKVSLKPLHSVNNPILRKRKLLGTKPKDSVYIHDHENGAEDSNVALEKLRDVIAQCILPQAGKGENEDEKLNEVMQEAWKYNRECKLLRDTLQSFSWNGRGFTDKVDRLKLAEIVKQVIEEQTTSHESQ

[2] = test system: ABL1 (human), P00519 [F317L]
EPHB4 (human) = EPHB4 (human) (UniProt P54760)
Chain of EPHB4 (human) (P54760 whole entry, looked up): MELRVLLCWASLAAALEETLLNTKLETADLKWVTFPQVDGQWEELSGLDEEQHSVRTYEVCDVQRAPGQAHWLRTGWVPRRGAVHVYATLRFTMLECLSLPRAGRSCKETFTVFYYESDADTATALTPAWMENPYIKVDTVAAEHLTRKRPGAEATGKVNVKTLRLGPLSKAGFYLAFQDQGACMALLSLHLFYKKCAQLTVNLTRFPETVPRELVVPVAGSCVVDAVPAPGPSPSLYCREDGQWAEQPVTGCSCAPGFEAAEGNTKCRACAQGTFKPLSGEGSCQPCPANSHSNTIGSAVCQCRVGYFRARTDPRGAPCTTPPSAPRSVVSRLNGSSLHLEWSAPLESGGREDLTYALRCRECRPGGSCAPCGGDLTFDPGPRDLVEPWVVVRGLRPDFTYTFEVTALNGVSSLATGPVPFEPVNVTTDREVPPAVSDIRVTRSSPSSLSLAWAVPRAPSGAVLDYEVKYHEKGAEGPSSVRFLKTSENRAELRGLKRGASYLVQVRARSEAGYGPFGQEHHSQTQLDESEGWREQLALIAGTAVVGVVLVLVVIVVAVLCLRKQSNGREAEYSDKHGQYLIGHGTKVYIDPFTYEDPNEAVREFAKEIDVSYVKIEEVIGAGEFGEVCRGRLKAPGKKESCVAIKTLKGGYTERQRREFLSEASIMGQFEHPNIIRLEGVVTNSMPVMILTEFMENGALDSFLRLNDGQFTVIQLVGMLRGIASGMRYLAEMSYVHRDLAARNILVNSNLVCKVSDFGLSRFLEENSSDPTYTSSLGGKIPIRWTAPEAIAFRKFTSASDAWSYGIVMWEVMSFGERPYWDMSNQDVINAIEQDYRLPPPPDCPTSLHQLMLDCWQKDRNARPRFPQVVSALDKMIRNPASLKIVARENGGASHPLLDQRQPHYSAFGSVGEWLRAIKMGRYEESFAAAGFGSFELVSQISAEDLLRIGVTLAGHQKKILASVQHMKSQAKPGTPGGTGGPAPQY

ACVRL1 (human) = ACVRL1 (human) (UniProt P37023)
ROCK2 (human) = ROCK2 (human) (UniProt O75116)
NEK6 (human) = NEK6 (human) (UniProt Q9HC98)
IKBKE (human) = IKBKE (human) (UniProt Q14164)
Chain of IKBKE (human) (Q14164 whole entry, looked up): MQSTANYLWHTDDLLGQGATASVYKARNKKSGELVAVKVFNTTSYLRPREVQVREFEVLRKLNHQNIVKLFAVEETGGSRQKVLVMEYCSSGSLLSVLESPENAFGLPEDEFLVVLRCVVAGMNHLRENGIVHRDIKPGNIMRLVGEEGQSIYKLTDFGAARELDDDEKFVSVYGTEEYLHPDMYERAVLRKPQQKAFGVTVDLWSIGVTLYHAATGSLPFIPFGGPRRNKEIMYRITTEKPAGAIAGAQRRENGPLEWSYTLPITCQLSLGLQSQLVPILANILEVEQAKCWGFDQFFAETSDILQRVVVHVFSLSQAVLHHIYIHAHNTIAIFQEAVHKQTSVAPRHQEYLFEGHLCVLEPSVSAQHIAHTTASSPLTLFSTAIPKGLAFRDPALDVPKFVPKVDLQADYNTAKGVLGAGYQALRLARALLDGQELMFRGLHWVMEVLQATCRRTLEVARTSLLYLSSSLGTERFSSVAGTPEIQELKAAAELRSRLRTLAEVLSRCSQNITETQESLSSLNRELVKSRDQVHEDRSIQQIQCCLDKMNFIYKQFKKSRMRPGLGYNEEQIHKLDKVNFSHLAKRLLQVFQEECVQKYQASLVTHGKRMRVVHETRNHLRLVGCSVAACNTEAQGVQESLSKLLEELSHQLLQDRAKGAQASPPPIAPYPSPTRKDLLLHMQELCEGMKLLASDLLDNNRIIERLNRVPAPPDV

PRKACA (human) = PRKACA (human) (UniProt P17612)
MAPK12 (human) = MAPK12 (human) (UniProt P53778)
TYRO3 (human) = TYRO3 (human) (UniProt Q06418)
[3] = test system: RET (human), P07949 [M918T]
PIK3C2B (human) = PIK3C2B (human) (UniProt O00750)
ALK (human) = ALK (human) (UniProt Q9UM73)
RIPK1 (human) = RIPK1 (human) (UniProt Q13546)
AURKA (human) = AURKA (human) (UniProt O14965)
Chain of AURKA (human) (O14965 whole entry, looked up): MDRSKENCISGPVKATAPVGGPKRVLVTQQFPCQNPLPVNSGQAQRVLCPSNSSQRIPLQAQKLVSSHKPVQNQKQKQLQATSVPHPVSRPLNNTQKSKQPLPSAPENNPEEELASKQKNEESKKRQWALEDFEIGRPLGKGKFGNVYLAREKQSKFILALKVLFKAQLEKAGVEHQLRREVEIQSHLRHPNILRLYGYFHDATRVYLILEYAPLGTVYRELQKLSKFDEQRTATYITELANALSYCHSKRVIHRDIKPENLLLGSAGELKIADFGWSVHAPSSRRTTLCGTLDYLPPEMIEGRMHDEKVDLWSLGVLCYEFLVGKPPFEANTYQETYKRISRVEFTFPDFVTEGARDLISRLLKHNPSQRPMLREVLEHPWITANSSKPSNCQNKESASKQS

MARK4 (human) = MARK4 (human) (UniProt Q96L34)
[4] = test system: FGFR3 (human), P22607 [G697C]
RPS6KA5 KD1 (human) = RPS6KA5 KD1 (human) (UniProt O75582)
LIMK2 (human) = LIMK2 (human) (UniProt P53671)
Chain of LIMK2 (human) (P53671 whole entry, looked up): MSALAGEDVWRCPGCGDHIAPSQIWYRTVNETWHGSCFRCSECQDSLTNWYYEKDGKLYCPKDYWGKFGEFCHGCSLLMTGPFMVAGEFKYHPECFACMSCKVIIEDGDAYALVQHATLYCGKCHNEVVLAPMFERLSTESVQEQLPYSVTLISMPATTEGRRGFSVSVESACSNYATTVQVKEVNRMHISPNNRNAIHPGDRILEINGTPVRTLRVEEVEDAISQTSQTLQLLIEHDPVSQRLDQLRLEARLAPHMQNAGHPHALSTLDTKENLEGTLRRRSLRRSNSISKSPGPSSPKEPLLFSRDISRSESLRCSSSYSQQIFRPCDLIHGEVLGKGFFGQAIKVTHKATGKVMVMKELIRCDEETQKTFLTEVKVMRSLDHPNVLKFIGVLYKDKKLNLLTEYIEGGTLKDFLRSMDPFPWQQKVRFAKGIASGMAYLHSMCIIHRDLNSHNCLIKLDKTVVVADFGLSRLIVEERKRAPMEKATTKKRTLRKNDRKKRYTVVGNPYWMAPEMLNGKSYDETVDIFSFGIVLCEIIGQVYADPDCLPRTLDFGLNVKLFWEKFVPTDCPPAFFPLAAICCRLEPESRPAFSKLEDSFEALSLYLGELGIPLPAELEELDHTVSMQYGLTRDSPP

[5] = test system: EGFR (human), P00533 [A750P; 747-749 del]

`COc1cc(N2CCN(C)CC2)ccc1Nc1ncc2c(n1)N(C)c1sccc1C(=O)N2C` was tested, and the kinase still bound, per cent of control (MAP4K3 (human)) was 79%, the kinase still bound, per cent of control (FGFR4 (human)) was 40% and the kinase still bound, per cent of control (CDK11B (human)) was 85%. For the same compound, the kinase still bound, per cent of control (EGFR (human)) was 80% and 87%, the kinase still bound, per cent of control (CAMK2D (human)) was 59% and the kinase still bound, per cent of control (MARK2 (human)) was 100%. The kinase still bound, per cent of control (INSR (human)) was 100%, the kinase still bound, per cent of control [1] was 99% and the kinase still bound, per cent of control (PDGFRA (human)) was 87%. The kinase still bound, per cent of control (PKN1 (human)) was 91%, the kinase still bound, per cent of control (ITK (human)) was 81% and the kinase still bound, per cent of control (LIMK1 (human)) was 100%. It also gave a kinase still bound, per cent of control (LCK (human)) of 100%, a kinase still bound, per cent of control (EIF2AK2 (human)) of 69% and a kinase still bound, per cent of control (TXK (human)) of 72%. It also gave a kinase still bound, per cent of control (PKMYT1 (human)) of 92%, a kinase still bound, per cent of control (MST4 (human)) of 70% and a kinase still bound, per cent of control (CDK3 (human)) of 100%. The kinase still bound, per cent of control (PHKG1 (human)) was 69%, the kinase still bound, per cent of control (STK10 (human)) was 100% and the kinase still bound, per cent of control (PRKX (human)) was 82%. The kinase still bound, per cent of control (MAP2K1 (human)) was 90%, the kinase still bound, per cent of control (MAPKAPK5 (human)) was 69% and the kinase still bound, per cent of control [2] was 1.8%. For the same compound, the kinase still bound, per cent of control (EPHB4 (human)) was 100%, the kinase still bound, per cent of control (ACVRL1 (human)) was 99% and the kinase still bound, per cent of control (ROCK2 (human)) was 57%. It also gave a kinase still bound, per cent of control (NEK6 (human)) of 35%, a kinase still bound, per cent of control (IKBKE (human)) of 100% and a kinase still bound, per cent of control (PRKACA (human)) of 97%. It also gave a kinase still bound, per cent of control (MAPK12 (human)) of 76%, a kinase still bound, per cent of control (TYRO3 (human)) of 76% and a kinase still bound, per cent of control [3] of 96%. For the same compound, the kinase still bound, per cent of control (PIK3C2B (human)) was 85%, the kinase still bound, per cent of control (ALK (human)) was 44% and the kinase still bound, per cent of control (RIPK1 (human)) was 100%. For the same compound, the kinase still bound, per cent of control (AURKA (human)) was 75%, the kinase still bound, per cent of control (MARK4 (human)) was 59% and the kinase still bound, per cent of control [4] was 83%. It also gave a kinase still bound, per cent of control (RPS6KA5 KD1 (human)) of 86%, a kinase still bound, per cent of control (LIMK2 (human)) of 83% and a kinase still bound, per cent of control [5] of 70%.
